Reference: patent US20250332154A1, “USE OF NAPHTHOQUINE PHOSPHATE IN PREPARATION OF A MEDICAMENT FOR TREATING AUTOIMMUNE DISEASES” (SHANGHAI PHARMACEUTICALS INDUSTRY CO., LTD, priority 2022, published 2025)

Key:
RAW264.7 cells = experiment: Non-specific cytotoxicity assay (MTT), RAW264.7; type: cell-based, mouse; conditions: 48 hours
Procedure: RAW264.7 cells were inoculated into a 96-well plate at 1×10^5/well and allowed to adhere to the wall for 6 hours in a 37° C., 5% CO2 incubator. […] A corresponding solvent control (cell control) and a culture medium background control (blank control) were set up. The cells were cultured in a 37° C., 5% CO2 incubator for 48 hours. Fifteen minutes before the end of the culture, 20 μl of 5 mg/ml MTT was added. At the end of the culture, the supernatant was aspirated and discarded, 200 μl DMSO was added to dissolve the crystals.

TNF-α = TNF-α production by LPS-induced RAW264.7 cells (ELISA); type: cell-based, mouse
Procedure: (§1) RAW264.7 cells were inoculated into a 96-well plate at 1×10^5/well and allowed to adhere to the wall for 6 hours in a 37° C., 5% CO2 incubator. […] After the cells adhered to the wall, the stimulant LPS (final concentration: 10 μg/ml) and the gradient-diluted compounds were added. A corresponding stimulation control and a cell control (without stimulation) were set up. After the end of the culture, the cell culture supernatants were collected, and the levels of TNF-α, IL-1β and IL-6 were measured by ELISA.

IL-1β = IL-1β production by LPS-induced RAW264.7 cells (ELISA); type: cell-based, mouse
Procedure: as §1

IL-6 = IL-6 production by LPS-induced RAW264.7 cells (ELISA); type: cell-based, mouse
Procedure: as §1

[1] = Non-specific cytotoxicity assay (MTT), mouse spleen lymphocytes; type: cell-based; conditions: BALB/c, mouse, mouse whole spleen lymphocytes
Procedure: BALB/c mice were sacrificed by cervical dislocation, and spleens were aseptically excised to prepare whole spleen lymphocytes. The cells were adjusted to the required concentration. The compound concentrations started at 250 μM and was diluted with a 4-fold gradient to obtain 10 concentrations: 250, 62.5, 15.625, 3.906, 0.977, 0.244, 0.061, 0.015, 0.004 and 0.001 μM.
A suspension of mouse spleen lymphocytes was inoculated into a 96-well plate at 8×10^5/well, and the above 10 concentration gradients of the compound were added. A corresponding cell control (i.e. spleen lymphocyte culture system without compound) and a RPMI 1640 culture medium background control (blank culture medium control) were set up. The cells were cultured in a 37° C., 5% CO2 incubator for 48 hours. Four hours before the end of the culture, 20 μl of 5 mg/ml MTT solution was added, and the reaction continued until the end of the culture (i.e. the aforementioned 48 hours). The supernatant was aspirated and discarded, 200 μl DMSO was added to each well to dissolve the crystals. […]. The absorbance value was measured at […] with a microplate reader (Spectra Max 190, Molecular Devices).

[2] = system: mouse whole spleen lymphocytes (ConA-induced T cell activation and proliferation); experiment: ConA-induced lymphocyte proliferation assay (3H-thymidine); type: cell-based; conditions: Mus musculus, Lymphocyte, read-out: ConA IC50
Procedure: (§2) BALB/c mice were sacrificed by cervical dislocation, and spleens were aseptically excised to prepare whole spleen lymphocytes. The cells were adjusted to the required concentration.
(§3) A suspension of mouse spleen lymphocytes was inoculated into a 96-well plate at 5×10^5/well, and ConA (final concentration: 1 μg/ml) or LPS (final concentration: 10 μg/ml) and the above 10 concentration gradients of the compound were added. Corresponding cell control wells without ConA and LPS, as well as medicament-free stimulated control wells, were set up. The cells were cultured in a 37° C., 5% CO2 incubator for 48 hours. Eight hours before the end of the culture, ^3H-thymidine was added, and the culture continued until the end of the experiment (i.e., the aforementioned 48 hours). The cells were collected onto glass fiber membranes using a cell collector.
(§4) ConA and LPS, as mitogens, stimulated proliferation and differentiation of T and B lymphocytes, respectively. This process is similar to the activation process of lymphocytes in vivo. Therefore, mitogen-induced lymphocyte proliferation is commonly used as an indicator to evaluate functionality of lymphocytes.

[3] = system: mouse whole spleen lymphocytes (LPS-induced B cell activation and proliferation); experiment: LPS-induced lymphocyte proliferation assay (3H-thymidine); type: cell-based; conditions: Mus musculus, Lymphocyte, read-out: LPS IC50
Procedure: as §2, §3, §4

In the case of Chloroquine Sulfate, the CC50 (RAW264.7 cells) is reported as 26.6 µM, the IC50 (TNF-α; LPS 10 μg/ml, RAW264.7) is reported as 32.6 µM and the “production of TNF-α” value (TNF-α; LPS-induced RAW264.7, in words) is reported as “no significant effect”. The IC50 (IL-1β; LPS 10 μg/ml, RAW264.7, read-out: IB-1β IC50) was 2.72 µM, the “production of LPS-induced IL-1β” value (IL-1β; RAW264.7, in words) was “significantly inhibited” and the IC50 (IL-6; LPS 10 μg/ml, RAW264.7) was 14.7 µM. The “production of IL-6” value (IL-6; LPS-induced RAW264.7, in words) was “no significant effect”.
In the case of `CCN(CC)CCCC(C)Nc1ccnc2cc(Cl)ccc12` (stereo not shown) [Chloroquine Phosphate], the CC50 at 48 h [1] is reported as 26.9 µM, the IC50 [2] is reported as 14.3 µM and the IC50 [3] is reported as 15.1 µM.
